Source: patent publication US11236069B2, “KIF18A inhibitors” (AMGEN INC., priority 2018, dated 2022)

What follows are compounds tested against Recombinant human KIF18A (1-467 His-tagged) protein (Homo sapiens (Human), UniProt Q8NI77) (assay: KIF18A Enzyme Assay: microtubule-stimulated ATPase activity (ADP-Glo)). Conditions: read-out: KIF18A ATPase IC50; 30 nM KIF18A, 30 μg/mL pig microtubules, ATP at Km 75 μM, ADP-Glo luminescence.
Sequence of Recombinant human KIF18A (1-467 His-tagged) protein (Q8NI77 1-467): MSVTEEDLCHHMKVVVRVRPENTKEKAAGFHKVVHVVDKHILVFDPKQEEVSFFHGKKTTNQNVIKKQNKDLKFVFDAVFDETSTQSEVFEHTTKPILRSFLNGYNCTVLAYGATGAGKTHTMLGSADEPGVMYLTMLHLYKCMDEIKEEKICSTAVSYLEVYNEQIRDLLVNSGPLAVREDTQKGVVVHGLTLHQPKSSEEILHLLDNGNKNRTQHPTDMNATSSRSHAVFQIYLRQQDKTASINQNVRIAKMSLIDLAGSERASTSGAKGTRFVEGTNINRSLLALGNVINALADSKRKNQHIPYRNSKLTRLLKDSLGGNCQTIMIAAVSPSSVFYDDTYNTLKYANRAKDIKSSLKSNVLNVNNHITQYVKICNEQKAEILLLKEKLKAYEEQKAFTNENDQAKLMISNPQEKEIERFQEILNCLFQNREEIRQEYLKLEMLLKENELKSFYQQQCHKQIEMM
Sequence of Recombinant human KIF18A (1-467 His-tagged) protein (P02550 whole entry partner): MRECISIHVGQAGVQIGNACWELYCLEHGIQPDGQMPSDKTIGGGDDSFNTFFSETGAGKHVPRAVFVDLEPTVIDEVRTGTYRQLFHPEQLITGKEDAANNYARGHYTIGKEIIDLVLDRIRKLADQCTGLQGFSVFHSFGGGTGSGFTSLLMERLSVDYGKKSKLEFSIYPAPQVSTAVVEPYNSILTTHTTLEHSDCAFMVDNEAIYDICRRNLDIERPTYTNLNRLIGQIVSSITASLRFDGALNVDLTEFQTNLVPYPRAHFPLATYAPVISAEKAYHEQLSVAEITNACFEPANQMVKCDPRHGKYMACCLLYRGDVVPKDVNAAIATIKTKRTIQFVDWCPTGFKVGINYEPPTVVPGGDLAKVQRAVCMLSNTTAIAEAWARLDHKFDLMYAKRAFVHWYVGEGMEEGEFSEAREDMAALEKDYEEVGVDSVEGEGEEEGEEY
Sequence of Recombinant human KIF18A (1-467 His-tagged) protein (P02554 whole entry partner): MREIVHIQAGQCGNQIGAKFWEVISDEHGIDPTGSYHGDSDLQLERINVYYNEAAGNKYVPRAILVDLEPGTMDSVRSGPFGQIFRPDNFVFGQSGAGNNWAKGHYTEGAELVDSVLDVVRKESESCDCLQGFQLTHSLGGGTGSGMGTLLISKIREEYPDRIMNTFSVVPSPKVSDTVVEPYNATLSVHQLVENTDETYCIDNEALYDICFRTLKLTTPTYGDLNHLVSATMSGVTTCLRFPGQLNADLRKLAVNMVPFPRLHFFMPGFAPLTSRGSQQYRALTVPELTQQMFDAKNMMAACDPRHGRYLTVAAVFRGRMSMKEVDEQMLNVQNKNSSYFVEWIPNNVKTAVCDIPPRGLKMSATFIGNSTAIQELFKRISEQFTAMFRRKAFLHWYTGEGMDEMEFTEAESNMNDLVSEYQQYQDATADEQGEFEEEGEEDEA
Description: KIF18A Enzyme Assay: Microtubule-stimulated ATPase activity assay is used to measure KIF18A enzyme activity after treatment with compound. Compounds were 2-fold serially diluted in DMSO (Sigma Inc) over 22-point concentration range. […] The assay measures ADP formed from the ATPase reaction.

Question: For `O=C(Nc1ccnc(N2CC(F)(F)C2)n1)c1ccc(NS(=O)(=O)CCO)cc1N1CCC2(CC1)CC2` [Example 11-7, N-(2-(3,3-Difluoroazetidin-1-yl)pyrimidin-4-yl)-4-((2-hydroxyethyl)sulfonamido)-2-(6-azaspiro[2.5]octan-6-yl)benzamide], which IC50 is on record?
Answer: Its IC50 is 23 nM.

Question: With `Cc1cc(NC(=O)c2ccc(NS(=O)(=O)CCO)cc2N2CCC3(CC2)CC3)nc(C(C)C)n1` [Example 11-2, 4-((2-Hydroxyethyl)sulfonamido)-N-(2-isopropyl-6-methylpyrimidin-4-yl)-2-(6-azaspiro[2.5]octan-6-yl)benzamide] as the compound, how does the IC50 read?
Answer: The IC50 was 27 nM.

Question: With `Cc1cc(NC(=O)c2ccc(NS(=O)(=O)C3CCC3)cc2N2CCC3(CC2)CC3)nc(N2CCC(F)(F)CC2)n1` [Example 6-11, 4-(Cyclobutanesulfonamido)-N-(2-(4,4-difluoropiperidin-1-yl)-6-methylpyrimidin-4-yl)-2-(6-azaspiro[2.5]octan-6-yl)benzamide] as the compound, how does the IC50 read?
Answer: The IC50 was 127 nM.

Question: With `Cc1cc(NC(=O)c2ccc(N3CCOCS3(=O)=O)cc2N2CCC3(CC2)CC3)nc(N2CCC(F)(F)CC2)n1` [Example 6-9, N-(2-(4,4-Difluoropiperidin-1-yl)-6-methylpyrimidin-4-yl)-4-(3,3-dioxido-1,3,4-oxathiazinan-4-yl)-2-(6-azaspiro[2.5]octan-6-yl)benzamide] as the compound, how does the IC50 read?
Answer: Its IC50 is 246 nM.

Question: With `CC(C)(O)c1cc(NC(=O)c2ccc(NS(=O)(=O)CCO)cc2N2CCC3(CC2)CC3)nc(N2CCC(F)(F)CC2)n1` [Example 6-37, N-(2-(4,4-Difluoropiperidin-1-yl)-6-(2-hydroxypropan-2-yl)pyrimidin-4-yl)-4-((2-hydroxyethyl)sulfonamido)-2-(6-azaspiro[2.5]octan-6-yl)benzamide] as the compound, how does the IC50 read?
Answer: The IC50 was 125 nM.

Question: How did the IC50 turn out when `Cc1cc(NC(=O)c2ccc(NS(=O)(=O)CCO)cc2N2CCC3(CC2)CC3)nc(N2CC(C)(O)C2)n1` [Example 11-15, N-(2-(3-Hydroxy-3-methylazetidin-1-yl)-6-methylpyrimidin-4-yl)-4-((2-hydroxyethyl)sulfonamido)-2-(6-azaspiro[2.5]octan-6-yl)benzamide] was run?
Answer: The IC50 was 935 nM.

Question: With `Cc1cc(NC(=O)c2ccc(NS(=O)(=O)CCO)cc2N2CCC3(CC2)CC3)nc(N2[C@@H](C)COC[C@@H]2C)n1` [Example 11-49, N-(2-((3S,5S)-3,5-Dimethylmorpholino)-6-methylpyrimidin-4-yl)-4-((2-hydroxyethyl)sulfonamido)-2-(6-azaspiro[2.5]octan-6-yl)benzamide] as the compound, how does the IC50 read?
Answer: The IC50 was 245 nM.

Question: Which IC50 does the source give for `Cc1cc(NC(=O)c2ccc(NS(=O)(=O)CC3CC3)cc2N2CCC3(CC2)CC3)nc(N2CC(F)(F)C2)n1` [Example 11-78, 4-((Cyclopropylmethyl)sulfonamido)-N-(2-(3,3-difluoroazetidin-1-yl)-6-methylpyrimidin-4-yl)-2(6-azaspiro[2.5]octan-6-yl)benzamide] here?
Answer: Its IC50 is 125 nM.

Question: Which IC50 does the source give for `Cc1cc(NC(=O)c2cc(F)c(NS(=O)(=O)[C@H](C)CO)cc2N2CCC3(CC2)CC3)nc(N2CCC(F)(F)CC2)n1` (single isomer, unassigned) [Example 8-1] here?
Answer: Its IC50 is 91 nM.

Question: `Cc1cc(NC(=O)c2ccc(NS(=O)(=O)[C@H](CO)CF)cc2N2CCC3(CC2)CC3)nc(N2CCC(F)(F)CC2)n1` [Example 16-1, (R)-N-(2-(4,4-Difluoropiperidin-1-yl)-6-methylpyrimidin-4-yl)-4-((2-fluoro-1-(hydroxymethyl)ethyl)sulfonamido)-2-(6-azaspiro[2.5]octan-6-yl)benzamide] was tested. Which IC50 did it give?
Answer: Its IC50 is 89 nM.

Question: How did the IC50 turn out when `COCCS(=O)(=O)Nc1ccc(C(=O)Nc2cc(C)nc(N3CCC(F)(F)CC3)n2)c(N2CCC3(CC2)CC3)c1` [Example 6-17, N-(2-(4,4-Difluoropiperidin-1-yl)-6-methylpyrimidin-4-yl)-4-((2-methoxyethyl)sulfonamido)-2-(6-azaspiro[2.5]octan-6-yL)benzamide] was run?
Answer: The IC50 was 32 nM.

Question: With `Cc1cc(NC(=O)c2ccc(NS(=O)(=O)CF)cc2N2CCC3(CC2)CC3)nc(N2CCC(F)CC2)n1` [Example 6-1, 4-((Fluoromethyl)sulfonamido)-N-(2-(4-fluoropiperidin-1-yl)-6-methylpyrimidin-4-yl)-2-(6-azaspiro[2.5]octan-6-yl)benzamide] as the compound, how does the IC50 read?
Answer: The IC50 was 62 nM.

Question: How did the IC50 turn out when `Cc1cc(NC(=O)c2ccc(NS(=O)(=O)CCO)cc2N2CCC3(CC2)CC3)nc(N2CC(F)C2)n1` [Example 11-5, N-(2-(3-Fluoroazetidin-1-yl)-6-methylpyrimidin-4-yl)-4-((2-hydroxyethyl)sulfonamido)-2-(6-azaspiro[2.5]octan-6-yl)benzamide] was run?
Answer: Its IC50 is 32 nM.

Question: With `Cc1cc(NC(=O)c2ccc(NS(=O)(=O)CCO)cc2N2CCC3(CC2)CC3)nc(O[C@@H]2CCOC2)n1` [Example 11-80, (R)-4-((2-Hydroxyethyl)sulfonamido)-N-(6-methyl-2-((tetrahydrofuran-3-yl)oxy)pyrimidin-4-yl)-2-(6-azaspiro[2.5]octan-6-yl)benzamide] as the compound, how does the IC50 read?
Answer: Its IC50 is 117 nM.

Question: `O=C(Nc1ccnc(N2CCC(F)CC2)n1)c1ccc(NS(=O)(=O)CCO)cc1N1CCC2(CC1)CC2` [Example 11-56, N-(2-(4-Fluoropiperidin-1-yl)pyrimidin-4-yl)-4-((2-hydroxyethyl)sulfonamido)-2-(6-azaspiro[2.5]octan-6-yl)benzamide] was tested. Which IC50 did it give?
Answer: Its IC50 is 22 nM.

Question: For `Cc1cc(NC(=O)c2ccc(S(=O)(=O)NC3(C)COC3)cc2N2CCC3(CC2)CC3)nc(N2CCO[C@H](C)C2)n1` [Example 2-3, (R)-N-(6-Methyl-2-(2-methylmorpholino)pyrimidin-4-yl)-4-(N-(3-methyloxetan-3-yl)sulfamoyl)-2-(6-azaspiro[2.5]octan-6-yl)benzamide], which IC50 is on record?
Answer: The IC50 was 115 nM.

Question: Which IC50 does the source give for `Cc1cc(NC(=O)c2ccc(NS(=O)(=O)CCO)cc2N2CCC3(CC2)CC3)c(F)c(N2CCC(F)(F)CC2)n1` [Example 11-64, N-(2-(4,4-Difluoropiperidin-1-yl)-3-fluoro-6-methylpyridin-4-yl)-4-((2-hydroxyethyl)sulfonamido)-2-(6-azaspiro[2.5]octan-6-yl)benzamide] here?
Answer: Its IC50 is 54 nM.

Question: For `Cc1cc(NC(=O)c2ccc(NS(=O)(=O)C3(C)CC3)cc2N2CCC3(CC2)CC3)nc(N2CC(F)(F)C2)n1` [Example 11-74, N-(2-(3,3-Difluoroazetidin-1-yl)-6-methylpyrimidin-4-yl)-4-((1-methylcyclopropane)-1-sulfonamido)-2-(6-azaspiro[2.5]octan-6-yl)benzamide], which IC50 is on record?
Answer: The IC50 was 94 nM.

Question: Which IC50 does the source give for `Cc1cc(NC(=O)c2ccc(NS(=O)(=O)CCO)cc2N2CCC3(CC2)CC3)nc(N2CCOC(C)(C)C2)n1` [Example 11-46, N-(2-(2,2-Dimethylmorpholino)-6-methylpyrimidin-4-yl)-4-((2-hydroxyethyl)sulfonamido)-2-(6-azaspiro[2.5]octan-6-yl)benzamide] here?
Answer: Its IC50 is 150 nM.

Question: Which IC50 does the source give for `Cc1cc(NC(=O)c2ccc(NS(C)(=O)=O)cc2N2CCC3(CC2)CC3)nc(N2CCO[C@H](C)C2)n1` [Example 6-5, (R)-N-(6-Methyl-2-(2-methylmorpholino)pyrimidin-4-yl)-4-(methylsulfonamido)-2-(6-azaspiro[2.5]octan-6-yl)benzamide] here?
Answer: Its IC50 is 120 nM.

Question: With `Cc1cc(NC(=O)c2c(F)cc(NS(=O)(=O)CCO)cc2N2CCC3(CC2)CC3)nc(N2CCC(F)(F)CC2)n1` [Example 11-58, N-(2-(4,4-Difluoropiperidin-1-yl)-6-methylpyrimidin-4-yl)-2-fluoro-4-((2-hydroxyethyl)sulfonamido)-6-(6-azaspiro[2.5]octan-6-yl)benzamide] as the compound, how does the IC50 read?
Answer: The IC50 was 71 nM.

Question: `Cc1cc(NC(=O)c2ccc(S(C)(=O)=O)cc2N2CCC3(CC2)CC3)nc(NC[C@@H](C)O)n1` [Example 1-4, (R)-N-(2-((2-Hydroxypropyl)amino)-6-methylpyrimidin-4-yl)-4-(methylsulfonyl)-2-(6-azaspiro[2.5]octan-6-yl)benzamide] was tested. Which IC50 did it give?
Answer: The IC50 was 580 nM.

Question: Which IC50 does the source give for `Cc1cc(NC(=O)c2ccc(S(C)(=O)=O)cc2N2CCC3(CC2)CC3)nc(N[C@H](C)CO)n1` [Example 1-1, (R)-N-(2-((1-Hydroxypropan-2-yl)amino)-6-methylpyrimidin-4-yl)-4-(methylsulfonyl)-2-(6-azaspiro[2.5]octan-6-yl)benzamide] here?
Answer: The IC50 was 216 nM.

Question: `Cc1cc(NC(=O)c2ccc(NS(=O)(=O)C[C@@H](C)O)cc2N2CCC3(CC2)CC3)nc(N2CC(F)(F)C2)n1` (single isomer, unassigned) [Example 10-1] was tested. Which IC50 did it give?
Answer: The IC50 was 83 nM.

Question: With `Cc1cc(NC(=O)c2ccc(NS(C)(=O)=O)cc2N2CCC3(CC2)CC3)nc(N2CCC(F)(F)CC2)n1` [Example 6-21, N-(2-(4,4-Difluoropiperidin-1-yl)-6-methylpyrimidin-4-yl)-4-(methylsulfonamido)-2-(6-azaspiro[2.5]octan-6-yl)benzamide] as the compound, how does the IC50 read?
Answer: The IC50 was 39 nM.

Question: For `Cc1cc(NC(=O)c2ccc(NS(=O)(=O)C(C)(C)C)cc2N2CCC3(CC2)CC3)nc(N2CC(F)(F)C2)n1` [Example 11-83, N-(2-(3,3-Difluoroazetidin-1-yl)-6-methylpyrimidin-4-yl)-4-((1,1-dimethylethyl)sulfonamido)-2-(6-azaspiro[2.5]octan-6-yl)benzamide], which IC50 is on record?
Answer: Its IC50 is 98 nM.

Question: How did the IC50 turn out when `Cc1cc(NC(=O)c2ccc(NS(=O)(=O)CCO)cc2N2CCC3(CC2)CC3)nc(N2CC([C@H](C)O)C2)n1` [Example 11-21, (S)-N-(2-(3-(1-Hydroxyethyl)azetidin-1-yl)-6-methylpyrimidin-4-yl)-4-((2-hydroxyethyl)sulfonamido)-2-(6-azaspiro[2.5]octan-6-yl)benzamide] was run?
Answer: The IC50 was 704 nM.

Question: `Cc1cc(NC(=O)c2ccc(S(=O)(=O)[C@H]3COC[C@@H]3O)cc2N2CCC3(CC2)CC3)nc(N2CCC(F)(F)CC2)n1` [Example 14-8, N-(2-(4,4-Difluoropiperidin-1-yl)-6-methylpyrimidin-4-yl)-4-(((S,4S)-4-hydroxytetrahydrofuran-3-yl)sulfonyl)-2-(6-azaspiro[2.5]octan-6-yl)benzamide] was tested. Which IC50 did it give?
Answer: The IC50 was 97 nM.

Question: For `Cc1cc(NC(=O)c2ccc(S(=O)(=O)C(C)(C)C)cc2N2CCC3(CC2)CC3)nc(N2CCC(F)(F)CC2)n1` [Example 14-6, 4-(tert-Butylsulfonyl)-N-(2-(4,4-difluoropiperidin-1-yl)-6-methylpyrimidin-4-yl)-2-(6-azaspiro[2.5]octan-6-yl)benzamide], which IC50 is on record?
Answer: Its IC50 is 1880 nM.
